Entries after “also recorded” stand apart in the source; their conditions may differ. Marks after values point to notes of the source that are not given here.
Columns and labels:
[1] = test system: intracellular T. gondii tachyzoites in HFF monolayers; assay: Replication assay; assay type: cell-based, Toxoplasma gondii; conditions: for inhibition at 10 µM: Toxoplasma gondii, read-out: Inhibition of parasite replication; for Parasite doublings per vacuole, dose-response experiment: separate experiments, authors' unpublished results [37]; for Replication inhibition, result in words: added 2 h after inoculation, 24-26 h
[2] = test system: human foreskin fibroblast (HFF) host cells; assay type: cell-based; conditions: 5 days
[3] = test system: tachyzoites of T.gondii strain 2F; assay: Five day growth inhibition assay; assay type: cell-based, Toxoplasma gondii; conditions: HFF cells

## CC1=C(C(=O)NCc2ccccc2)O[C@@H]2O[C@@]3(C)CC[C@H]4[C@H](C)CC[C@@H]1[C@@]24OO3 [Compound 18]
[1]
  inhibition at 10 µM: 50%

## CC1=C(c2nc(C)c(C)s2)O[C@@H]2O[C@@]3(C)CC[C@H]4[C@H](C)CC[C@@H]1[C@@]24OO3 [Compound 3]
[1]; 1 μM
  Parasite doublings per vacuole, dose-response experiment: 1 doubling
[1]; 5 μM
  Parasite doublings per vacuole, dose-response experiment: 1 doubling
[1]; 10 μM
  Parasite doublings per vacuole, dose-response experiment: 1 doubling

## CO[C@H]1O[C@@H]2O[C@@]3(C)CC[C@H]4[C@H](C)CC[C@@H]([C@H]1C)[C@@]24OO3 [Artemether, reference compound]
[1]; 10 μM
  Replication inhibition, result in words: only modest inhibition

## CC1=C(C(=O)NCc2ccc(C)cc2)O[C@@H]2O[C@@]3(C)CC[C@H]4[C@H](C)CC[C@@H]1[C@@]24OO3 [Compound 21]
[1]
  inhibition at 10 µM: 50%

## CCNC(=O)C1=C(C)[C@@H]2CC[C@@H](C)[C@@H]3CC[C@@]4(C)OO[C@@]23[C@H](O1)O4 [Compound 15]
[1]
  inhibition at 10 µM: 50%

## CC1=C(c2nc(-c3ccc(S(C)(=O)=O)cc3)cs2)O[C@@H]2O[C@@]3(C)CC[C@H]4[C@H](C)CC[C@@H]1[C@@]24OO3 [Compound 12]
[1]
  inhibition at 10 µM: 75%

## CSc1ccc(-c2csc(C3=C(C)[C@@H]4CC[C@@H](C)[C@@H]5CC[C@@]6(C)OO[C@@]45[C@H](O3)O6)n2)cc1 [Compound 11]
[1]; 10 μM
  Replication inhibition, result in words: completely inhibited replication

## C[C@@H]1CC[C@H]2[C@@H](C)C(=O)O[C@@H]3O[C@@]4(C)CC[C@@H]1[C@]32OO4 [Artemisinin, reference compound]
[1]; 10 μM
  Replication inhibition, result in words: no measurable activity

## CC1=C(c2ncc(C)s2)O[C@@H]2O[C@@]3(C)CC[C@H]4[C@H](C)CC[C@@H]1[C@@]24OO3 [Compound 4]
[1]; 1 μM
  Parasite doublings per vacuole, dose-response experiment: 2 doubling
[1]; 5 μM
  Parasite doublings per vacuole, dose-response experiment: 1 doubling
[1]; 10 μM
  Parasite doublings per vacuole, dose-response experiment: 1 doubling

## COc1cc(Cc2cnc(N)nc2N)cc(OC)c1OC [Trimethoprim]
[2]
  TD50, median cytotoxic dose: ≥320 ^b μM

## CC1=C(c2nc(C3CCCCC3)cs2)O[C@@H]2O[C@@]3(C)CC[C@H]4[C@H](C)CC[C@@H]1[C@@]24OO3 [Compound 8]
[3]
  Growth inhibition, result in words: ineffective
[1]; 10 μM
  Replication inhibition, result in words: only weakly inhibited replication

## CC1=C(c2nc(-c3ccccc3)no2)O[C@@H]2O[C@@]3(C)CC[C@H]4[C@H](C)CC[C@@H]1[C@@]24OO3 [Compound 14]
[1]; 1 μM
  Parasite doublings per vacuole, dose-response experiment: 1 doubling
[1]; 5 μM
  Parasite doublings per vacuole, dose-response experiment: 1 doubling
[1]; 10 μM
  Replication inhibition, result in words: effectively inhibited replication
  Parasite doublings per vacuole, dose-response experiment: 0.5 doubling
[1]
  inhibition at 10 µM: 75%

## CC1=C(C(=O)NCc2ccc(C(F)(F)F)cc2)O[C@@H]2O[C@@]3(C)CC[C@H]4[C@H](C)CC[C@@H]1[C@@]24OO3 [Compound 22]
[1]; 10 μM
  Replication inhibition, result in words: effectively inhibited replication
[1]
  inhibition at 10 µM: 75%

## CC1=C(C(=O)NCc2ccc(F)cc2)O[C@@H]2O[C@@]3(C)CC[C@H]4[C@H](C)CC[C@@H]1[C@@]24OO3 [Compound 20]
[1]; 10 μM
  Replication inhibition, result in words: effectively inhibited replication
[1]
  inhibition at 10 µM: 75%

## CC1=C(C(=O)NCc2cc(F)cc(F)c2)O[C@@H]2O[C@@]3(C)CC[C@H]4[C@H](C)CC[C@@H]1[C@@]24OO3 [Compound 24]
[3]
  Growth inhibition, result in words: potent parasite inhibition
[1]
  inhibition at 10 µM: 50%

## CC1=C(C(=O)NCc2ccc(F)c(F)c2)O[C@@H]2O[C@@]3(C)CC[C@H]4[C@H](C)CC[C@@H]1[C@@]24OO3 [Compound 23]
[1]
  inhibition at 10 µM: 50%

## CC1=C(c2nc(-c3ccccc3)cs2)O[C@@H]2O[C@@]3(C)CC[C@H]4[C@H](C)CC[C@@H]1[C@@]24OO3 [Compound 5]
[1]; 1 μM
  Parasite doublings per vacuole, dose-response experiment: 1 doubling
[1]; 5 μM
  Parasite doublings per vacuole, dose-response experiment: 1 doubling
[1]; 10 μM
  Parasite doublings per vacuole, dose-response experiment: 0.5 doubling

## CC1=C(c2nc(C)cs2)O[C@@H]2O[C@@]3(C)CC[C@H]4[C@H](C)CC[C@@H]1[C@@]24OO3 [Compound 2]
[1]; 1 μM
  Parasite doublings per vacuole, dose-response experiment: 2 doubling
[1]; 5 μM
  Parasite doublings per vacuole, dose-response experiment: 1 doubling
[1]; 10 μM
  Parasite doublings per vacuole, dose-response experiment: 1 doubling

## CC1=C(C(=O)NCc2cc(Br)cc(Br)c2)O[C@@H]2O[C@@]3(C)CC[C@H]4[C@H](C)CC[C@@H]1[C@@]24OO3 [Compound 25]
[3]
  Growth inhibition, result in words: potent parasite inhibition
[1]; 10 μM
  Replication inhibition, result in words: completely inhibited replication; also recorded: effectively inhibited replication

## CC1=C(c2nc(C)no2)O[C@@H]2O[C@@]3(C)CC[C@H]4[C@H](C)CC[C@@H]1[C@@]24OO3 [Compound 13]
[1]
  inhibition at 10 µM: 50%

## CCN(CC)C(=O)C1=C(C)[C@@H]2CC[C@@H](C)[C@@H]3CC[C@@]4(C)OO[C@@]23[C@H](O1)O4 [Compound 16]
[3]
  Growth inhibition, result in words: ineffective; also recorded: activity is lost

Reference: publication PMC2865576 (Journal of medicinal chemistry, 2010)
